According to ChEMBL document CHEMBL5335794, “Discovery of novel multifunctional ligands targeting GABA transporters, butyrylcholinesterase, β-secretase, and amyloid β aggregation as potential treatment of Alzheimer's disease” (Eur J Med Chem, 2023):

How the values were obtained:
Beta-secretase 1 = Beta-secretase 1 (Homo sapiens, UniProt P56817); details: dose 50.0 µM, time 60.0 min
[1] = molecular target: Acetylcholinesterase (Electrophorus electricus) (UniProt O42275); assay: Inhibition of electric eel AChE using acetylthiocholine iodide as substrate at 10 uM preincubated for 5 mins followed by substrate addition and measured after 5 mins by DTNB reagent based Ellman's method relative to control; details: time 10.0 min
Sequence of Acetylcholinesterase (Electrophorus electricus) (O42275 24-633 limits assumed): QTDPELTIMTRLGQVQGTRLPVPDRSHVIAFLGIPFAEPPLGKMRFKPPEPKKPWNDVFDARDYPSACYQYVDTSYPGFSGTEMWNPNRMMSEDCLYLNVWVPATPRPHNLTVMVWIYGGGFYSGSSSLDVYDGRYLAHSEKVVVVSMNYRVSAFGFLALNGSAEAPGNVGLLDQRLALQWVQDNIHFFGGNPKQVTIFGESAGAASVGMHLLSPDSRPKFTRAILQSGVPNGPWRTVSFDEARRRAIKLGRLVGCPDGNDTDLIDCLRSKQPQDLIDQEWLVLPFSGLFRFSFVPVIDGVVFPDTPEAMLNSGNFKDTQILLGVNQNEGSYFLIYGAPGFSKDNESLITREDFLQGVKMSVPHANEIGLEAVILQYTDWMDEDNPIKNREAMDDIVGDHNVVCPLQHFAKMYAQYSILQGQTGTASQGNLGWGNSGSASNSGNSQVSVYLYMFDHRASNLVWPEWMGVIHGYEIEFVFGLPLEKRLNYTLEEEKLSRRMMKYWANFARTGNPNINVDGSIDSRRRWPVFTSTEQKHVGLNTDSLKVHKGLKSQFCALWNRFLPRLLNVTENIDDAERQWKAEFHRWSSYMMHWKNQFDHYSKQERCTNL

Cholinesterase = Cholinesterase (Equus caballus, UniProt P81908)
Sequence of Cholinesterase (P81908 whole entry): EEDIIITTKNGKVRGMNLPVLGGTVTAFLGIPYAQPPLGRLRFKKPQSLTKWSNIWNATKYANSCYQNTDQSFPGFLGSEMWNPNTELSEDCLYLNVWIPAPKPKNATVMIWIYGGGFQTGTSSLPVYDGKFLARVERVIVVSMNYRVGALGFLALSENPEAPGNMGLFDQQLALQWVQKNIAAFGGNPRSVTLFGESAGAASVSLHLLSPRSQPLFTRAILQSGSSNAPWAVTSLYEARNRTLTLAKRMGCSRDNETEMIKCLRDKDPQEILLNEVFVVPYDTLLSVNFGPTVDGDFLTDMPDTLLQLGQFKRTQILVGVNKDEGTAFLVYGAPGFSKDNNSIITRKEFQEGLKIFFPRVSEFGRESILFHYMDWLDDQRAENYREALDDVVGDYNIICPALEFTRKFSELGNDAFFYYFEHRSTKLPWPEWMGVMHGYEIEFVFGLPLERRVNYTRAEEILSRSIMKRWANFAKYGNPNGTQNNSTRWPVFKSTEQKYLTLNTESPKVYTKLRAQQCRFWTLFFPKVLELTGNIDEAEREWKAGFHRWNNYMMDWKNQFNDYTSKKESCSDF
Description: Inhibition of equine serum BuChE using butyrylthiocholine iodide as substrate preincubated for 5 mins followed by substrate addition and measured after 5 mins by DTNB reagent based Ellman's method

[2] = molecular target: Cholinesterase (Equus caballus) (UniProt P81908); assay: Inhibition of equine serum BuChE using butyrylthiocholine iodide as substrate at 10 uM preincubated for 5 mins followed by substrate addition and measured after 5 mins by DTNB reagent based Ellman's method relative to control; details: time 10.0 min
Sequence of Cholinesterase (Equus caballus) (P81908 whole entry): as above

[3] = molecular target: Sodium- and chloride-dependent GABA transporter 1 (Mus musculus, UniProt P31648); assay: Inhibition of mouse GAT1 transfected in HEK293 cells assessed as reduction in [3H]-GABA uptake preincubated for 25 mins followed by [3H]-GABA addition and measured after 4 mins by liquid scintillation counting analysis; format: cell-based; details: for IC50: read-out: pIC50 (converted)
[4] = Inhibition of mouse GAT3 transfected in HEK293 cells assessed as reduction in [3H]-GABA uptake preincubated for 25 mins followed by [3H]-GABA addition and measured after 4 mins by liquid scintillation counting analysis; format: cell-based; details: for IC50: HEK293, read-out: pIC50 (converted); for pIC50: hek293
GABA transporter 2 = molecular target: T1, GABA transporter 2 (Mus musculus, UniProt P31651); assay: Inhibition of mouse GAT2 transfected in HEK293 cells assessed as reduction in [3H]-GABA uptake preincubated for 25 mins followed by [3H]-GABA addition and measured after 10 mins by liquid scintillation counting analysis; format: cell-based; details: read-out: pIC50 (converted)
T1 sequence (P31651 whole entry): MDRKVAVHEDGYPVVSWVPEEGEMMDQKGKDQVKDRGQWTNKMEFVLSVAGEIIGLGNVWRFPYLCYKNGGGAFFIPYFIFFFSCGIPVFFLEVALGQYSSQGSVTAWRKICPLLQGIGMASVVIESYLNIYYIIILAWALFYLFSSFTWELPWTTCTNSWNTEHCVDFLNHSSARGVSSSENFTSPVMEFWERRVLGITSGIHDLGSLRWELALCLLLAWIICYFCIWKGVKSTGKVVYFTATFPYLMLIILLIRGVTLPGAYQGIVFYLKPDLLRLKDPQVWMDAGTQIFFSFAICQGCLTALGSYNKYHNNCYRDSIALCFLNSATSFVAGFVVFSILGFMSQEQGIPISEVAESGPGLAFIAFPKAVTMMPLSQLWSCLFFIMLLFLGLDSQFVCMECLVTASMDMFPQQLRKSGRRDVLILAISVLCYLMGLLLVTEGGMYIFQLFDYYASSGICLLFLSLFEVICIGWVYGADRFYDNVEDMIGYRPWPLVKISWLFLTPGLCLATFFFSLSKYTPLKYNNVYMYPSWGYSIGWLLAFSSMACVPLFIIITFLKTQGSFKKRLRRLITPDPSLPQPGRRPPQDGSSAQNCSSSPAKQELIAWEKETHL

GABA transporter 4 = molecular target: T2, GABA transporter 4 (Mus musculus, UniProt P31650); assay: Inhibition of mouse GAT4 transfected in HEK293 cells assessed as reduction in [3H]-GABA uptake preincubated for 25 mins followed by [3H]-GABA addition and measured after 4 mins by liquid scintillation counting analysis; format: cell-based; details: read-out: pIC50 (converted)
T2 sequence (P31650 whole entry): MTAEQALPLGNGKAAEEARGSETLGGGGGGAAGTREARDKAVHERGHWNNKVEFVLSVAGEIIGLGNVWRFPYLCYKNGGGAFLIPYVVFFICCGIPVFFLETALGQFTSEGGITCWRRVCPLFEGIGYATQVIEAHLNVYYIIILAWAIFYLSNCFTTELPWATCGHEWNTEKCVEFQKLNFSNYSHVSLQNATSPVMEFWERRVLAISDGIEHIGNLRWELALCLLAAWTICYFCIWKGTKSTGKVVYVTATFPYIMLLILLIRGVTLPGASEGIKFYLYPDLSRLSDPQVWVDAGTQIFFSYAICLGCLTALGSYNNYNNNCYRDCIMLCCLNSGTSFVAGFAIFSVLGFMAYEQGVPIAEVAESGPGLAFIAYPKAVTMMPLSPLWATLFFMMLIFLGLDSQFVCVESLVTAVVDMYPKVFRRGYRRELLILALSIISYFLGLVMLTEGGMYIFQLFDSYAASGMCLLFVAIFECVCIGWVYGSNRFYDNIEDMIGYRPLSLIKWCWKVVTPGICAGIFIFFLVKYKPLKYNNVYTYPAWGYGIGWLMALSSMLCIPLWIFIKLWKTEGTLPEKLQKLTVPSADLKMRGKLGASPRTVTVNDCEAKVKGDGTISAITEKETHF

[5] = molecular target: Sodium- and chloride-dependent GABA transporter 1 (Mus musculus) (UniProt P31648); assay: Inhibition of NO 711 marker binding to mouse GAT1 assessed as residual activity at 100 uM by LC-ESI-MS/MS based competitive MS binding assay relative to control

Sequence of Beta-secretase 1 (P56817 whole entry): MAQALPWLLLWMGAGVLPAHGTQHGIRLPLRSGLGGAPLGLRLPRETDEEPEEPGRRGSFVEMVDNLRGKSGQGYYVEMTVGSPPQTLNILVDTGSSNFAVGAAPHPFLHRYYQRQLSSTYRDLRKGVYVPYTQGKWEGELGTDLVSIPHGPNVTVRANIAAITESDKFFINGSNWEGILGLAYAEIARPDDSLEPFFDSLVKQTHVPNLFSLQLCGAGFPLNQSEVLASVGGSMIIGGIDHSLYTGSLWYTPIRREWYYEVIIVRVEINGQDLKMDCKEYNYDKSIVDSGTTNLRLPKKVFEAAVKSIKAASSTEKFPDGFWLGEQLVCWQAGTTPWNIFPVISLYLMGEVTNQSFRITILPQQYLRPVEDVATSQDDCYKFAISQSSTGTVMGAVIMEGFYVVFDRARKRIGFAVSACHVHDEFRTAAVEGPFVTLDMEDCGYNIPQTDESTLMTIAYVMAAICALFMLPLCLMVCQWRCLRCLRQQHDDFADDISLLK

| SMILES | inhibition (Beta-secretase 1) [%] | inhibition [1] [%] | inhibition [2] [%] | also measured |
| --- | --- | --- | --- | --- |
| Cc1ccc(CNC(=O)C(CO)N(C)CCC=C2c3ccccc3C=Cc3ccccc32)cc1 (stereo unspecified) | 54 | 30 | – | IC50 (Cholinesterase): 6.22 µM |
| Cc1ccc(CNC(=O)C(CCO)N(C)CCC=C2c3ccccc3C=Cc3ccccc32)cc1 (stereo unspecified) | 47 | < 10 | 35 | – |
| CC(=O)NCCC(C(=O)NCc1ccccc1Cl)N(C)CCC=C1c2ccccc2CCc2ccccc21 (stereo unspecified) | 44 | < 10 | 41 | – |
| CN(CCC=C1c2ccccc2CCc2ccccc21)C(CO)C(=O)NCc1ccccc1Cl (stereo unspecified) | 72 | < 10 | 52 | – |
| CN(CCOCCN1c2ccccc2Sc2ccccc21)C(CCO)C(=O)NCc1ccccc1 (stereo unspecified) | 48 | < 10 | – | IC50 [3]: 35.5 µM; IC50 [4]: 8.51 µM; IC50 (GABA transporter 2): 12.9 µM; IC50 (Cholinesterase): 4.34 µM; IC50 (GABA transporter 4): 21.4 µM; Activity [5]: 93% |
| CC(O)CC(C(=O)NCc1ccccc1Cl)N(C)CC/C=C/c1ccccc1-c1ccccc1 (racemic; form 1) [listing 1 of 2 here] | – | – | – | IC50 [3]: 33.9 µM; IC50 [4]: 13.8 µM; IC50 (GABA transporter 2): 15.5 µM; IC50 (GABA transporter 4): 38 µM |
| CC(O)CC(C(=O)NCc1ccc(F)cc1)N(C)CC/C=C/c1ccccc1-c1ccccc1 (racemic; form 1) [listing 1 of 2 here] | 39 | < 10 | 59 | Activity [5]: 86% |
| CN(CCC=C1c2ccccc2CCc2ccccc21)C(CO)C(=O)NCc1ccccc1 (stereo unspecified) | 33 | < 10 | 38 | – |
| CC(O)CC(C(=O)NCc1ccc(F)cc1)N(C)CC/C=C/c1ccccc1-c1ccccc1 (racemic; form 2) [listing 1 of 2 here] | 36 | < 10 | 62 | Activity [5]: 87% |
| CC(O)CC(C(=O)NCc1ccccc1)N(C)CC/C=C/c1ccccc1-c1ccccc1 (racemic; form 1) [listing 1 of 2 here] | – | – | – | IC50 [3]: 37.2 µM; IC50 [4]: 25.1 µM; IC50 (GABA transporter 2): 18.2 µM; IC50 (GABA transporter 4): 50.1 µM |
| CN(CCC=C1c2ccccc2CCc2ccccc21)C(CCO)C(=O)NCc1ccc(Cl)cc1 (stereo unspecified) | 43 | < 10 | 19 | – |
| CN(CCC=C1c2ccccc2C=Cc2ccccc21)C(CCO)C(=O)NCc1ccccc1Cl (stereo unspecified) | 48 | < 10 | 32 | – |
| CC(O)CC(C(=O)NCc1ccccc1)N(C)CC/C=C/c1ccccc1-c1ccccc1 (racemic; form 2) | 4 | < 10 | – | – |
| CN(CCC=C1c2ccccc2CCc2ccccc21)C(CO)C(=O)NCc1ccc(F)cc1 (stereo unspecified) | 48 | < 10 | 32 | – |
| CN(CCC=C1c2ccccc2C=Cc2ccccc21)C(CO)C(=O)NCc1ccc(Cl)cc1 (stereo unspecified) | 77 | 11 | 40 | – |
| CC(=O)NCCC(C(=O)NCc1ccccc1)N(C)CCC=C1c2ccccc2CCc2ccccc21 (stereo unspecified) | 34 | < 10 | 60 | – |
| Cc1ccc(CNC(=O)C(CO)N(C)CCC=C2c3ccccc3CCc3ccccc32)cc1 (stereo unspecified) | 59 | < 10 | 45 | – |
| CN(CCC=C1c2ccccc2C=Cc2ccccc21)C(CCO)C(=O)NCc1ccccc1 (stereo unspecified) | 34 | < 10 | 56 | – |
| CC(O)CC(C(=O)NCc1ccccc1Cl)N(C)CC/C=C/c1ccccc1-c1ccccc1 (racemic; form 2) [listing 1 of 2 here] | 57 | < 10 | – | Activity [5]: 76% |
| CC(O)CC(C(=O)NCc1ccccc1Cl)N(C)CC/C=C/c1ccccc1-c1ccccc1 (racemic; form 1) [listing 2 of 2 here] | 43 | < 10 | 64 | Activity [5]: 75% |

| SMILES | inhibition (Beta-secretase 1) [%] | inhibition [1] [%] | inhibition [2] [%] | also measured |
| --- | --- | --- | --- | --- |
| CN(CCC=C1c2ccccc2C=Cc2ccccc21)C(CO)C(=O)NCc1ccccc1 (stereo unspecified) | 29 | < 10 | – | IC50 (Cholinesterase): 4.35 µM |
| Cc1ccc(CNC(=O)C(CCO)N(C)CCC=C2c3ccccc3-c3ccccc32)cc1 (stereo unspecified) | 55 | < 10 | 52 | – |
| CC(O)CC(C(=O)NCc1ccc(F)cc1)N(C)CC/C=C/c1ccccc1-c1ccccc1 (racemic; form 1) [listing 2 of 2 here] | – | – | – | IC50 [3]: 24.5 µM; IC50 [4]: 8.91 µM; IC50 (GABA transporter 2): 9.77 µM; IC50 (GABA transporter 4): 19.1 µM |
| CN(CCC=C1c2ccccc2-c2ccccc21)C(CCO)C(=O)NCc1ccccc1Cl (stereo unspecified) | 59 | < 10 | – | IC50 (Cholinesterase): 1.63 µM |
| CC(=O)NCCC(C(=O)NCc1ccc(Cl)cc1)N(C)CCC=C1c2ccccc2CCc2ccccc21 (stereo unspecified) | 49 | < 10 | 24 | – |
| CN(CCC=C1c2ccccc2CCc2ccccc21)C(CCO)C(=O)NCc1ccc(F)cc1 (stereo unspecified) | 34 | < 10 | 39 | – |
| CC(O)CC(C(=O)NCc1ccccc1)N(C)CC/C=C/c1ccccc1-c1ccccc1 (racemic; form 1) [listing 2 of 2 here] | 36 | < 10 | 58 | Activity [5]: 75% |
| CC(=O)NCCC(C(=O)NCc1ccc(F)cc1)N(C)CCC=C1c2ccccc2CCc2ccccc21 (stereo unspecified) | 54 | < 10 | 47 | – |
| CN(CCC=C1c2ccccc2C=Cc2ccccc21)C(CO)C(=O)NCc1ccccc1Cl (stereo unspecified) | 52 | 12 | – | IC50 (Cholinesterase): 8.23 µM |
| CC(=O)NCCC(C(=O)NCc1ccc(C)cc1)N(C)CCC=C1c2ccccc2CCc2ccccc21 (stereo unspecified) | 36 | < 10 | 43 | – |
| Cc1ccc(CNC(=O)C(CCO)N(C)CCC=C2c3ccccc3CCc3ccccc32)cc1 (stereo unspecified) | 41 | < 10 | 36 | – |
| CC(O)CC(C(=O)NCc1ccc(F)cc1)N(C)CC/C=C/c1ccccc1-c1ccccc1 (racemic; form 2) [listing 2 of 2 here] | – | – | – | pIC50 ([3]; hek293): 4.61; pIC50 [4]: 4.87; IC50 (GABA transporter 2): 11.7 µM; IC50 (GABA transporter 4): 14.5 µM |
| CN(CCC=C1c2ccccc2CCc2ccccc21)C(CCO)C(=O)NCc1ccccc1Cl (stereo unspecified) | 44 | 11 | 24 | – |
| CC(O)CC(C(=O)NCc1ccccc1Cl)N(C)CC/C=C/c1ccccc1-c1ccccc1 (racemic; form 2) [listing 2 of 2 here] | – | – | – | IC50 [3]: 28.8 µM; pIC50 [4]: 4.82; IC50 (GABA transporter 2): 13.5 µM; IC50 (Cholinesterase): 3.67 µM; IC50 (GABA transporter 4): 15.1 µM |
| CN(CCC=C1c2ccccc2C=Cc2ccccc21)C(CCO)C(=O)NCc1ccc(Cl)cc1 (stereo unspecified) | 48 | < 10 | 21 | – |
| CN(CCC=C1c2ccccc2CCc2ccccc21)C(CO)C(=O)NCc1ccc(Cl)cc1 (stereo unspecified) | 34 | < 10 | 36 | – |
| CN(CCC=C1c2ccccc2C=Cc2ccccc21)C(CO)C(=O)NCc1ccc(F)cc1 (stereo unspecified) | 30 | < 10 | – | IC50 (Cholinesterase): 3.24 µM |
| CN(CCC=C1c2ccccc2CCc2ccccc21)C(CCO)C(=O)NCc1ccccc1 (stereo unspecified) | 19 | < 10 | 38 | – |
| CN(CCC=C1c2ccccc2C=Cc2ccccc21)C(CCO)C(=O)NCc1ccc(F)cc1 (stereo unspecified) | 39 | < 10 | 39 | – |
